Data from publication PMC5584945, “Evaluation of robenidine analog NCL195 as a novel broad-spectrum antibacterial agent” (PLoS ONE, 2017).
≈ marks a conversion by molar mass, not a printed value.

Tests used:
human red blood cells = assay: Haemolysis assay; type: cell-based; conditions: 1 h, 37°C; highest concentration used 128 μg/ml
Protocol: This was performed using fresh donor human red blood cells (RBCs), essentially as described previously. Fresh RBCs were washed in PBS three times at 500 × g for 5 min, and then resuspended 1% (w/v) in PBS. […] Thereafter, 198 μL of the 1% RBC solution was added into each well, and the mixture incubated for 1 h at 37°C, with shaking at 100 rpm. Quadruplicate wells containing either 1% Triton X100, or PBS only, served as controls. After incubation, the trays were centrifuged at 1,000 × g for 3 min and 100 μl of supernatant from each well transferred into a new 96-well tray. Absorbance was measured at A450 nm on a Multiskan Ascent 354 Spectrophotometer (Labsystems) and plotted against each dilution. Haemolytic titer was determined as the reciprocal of the dilution at which 50% of erythrocytes were lysed at A450 nm. The experiment was performed twice.

[1] = Kinetic solubility by nephelometry; type: physicochemical; conditions: kinetic from dmso stock
S. pneumoniae D39 = assay: Minimum bactericidal concentration (MBC); type: cell-based; conditions: Streptococcus pneumoniae, 99.9% colony count reduction, read-out: MBC
[2] = test system: vancomycin-resistant enterococci (VRE); assay: MIC, broth micro-dilution (CLSI); type: cell-based, enterococci (porcine isolates); conditions: for MIC50 / MIC90 / MIC: Enterococcus, VRE; for MIC50 / MIC90: S3 Table isolates

SMILES: C/C(=N\NC(=N)N/N=C(\C)c1ccc(C(C)(C)C)cc1)c1ccc(C(C)(C)C)cc1 [NCL219, (E)-N'-((E)-1-(4-(tert-butyl)phenyl)ethylidene)-2-(1-(4-(tert-butyl)phenyl)ethylidene)hydrazine-1-carboximidhydrazide]
- 50% haemolysis titre (HC50) (human red blood cells): 6 µg/mL
- solubility ([1]; pH 2.0): 0.78 to 1.6 µg/mL (≈ 1.92 to 3.94 µM)
- solubility ([1]; pH 6.5): 0.78 to 1.6 µg/mL (≈ 1.92 to 3.94 µM)
- MBC (S. pneumoniae D39): 4 µg/mL (≈ 9.86 µM)
- Fold increase of MIC range in the presence of 10% FBS ([2]; 10% FBS versus no FBS): 8 fold
- MIC range ([2]; 20 isolates): 1 to 2 µg/mL
- MIC50 ([2]; 10% FBS): 8 µg/mL (≈ 19.7 µM)
- MIC90 ([2]; 10% FBS): 16 µg/mL (≈ 39.4 µM)
- MIC50 ([2]; absence of FBS): 2 µg/mL (≈ 4.93 µM)
- MIC90 ([2]; absence of FBS): 2 µg/mL (≈ 4.93 µM)
- MIC ([2]; VRE 1 (49 FR), 10% FBS): 16 µg/mL (≈ 39.4 µM)
- MIC ([2]; VRE 1 (49 FR), absence of FBS): 2 µg/mL (≈ 4.93 µM)
- MIC ([2]; VRE 2 (53 FR), 10% FBS): 8 µg/mL (≈ 19.7 µM)
- MIC ([2]; VRE 2 (53 FR), absence of FBS): 2 µg/mL (≈ 4.93 µM)
- MIC ([2]; VRE 3 (55 FR), 10% FBS): 8 µg/mL (≈ 19.7 µM)
- MIC ([2]; VRE 3 (55 FR), absence of FBS): 2 µg/mL (≈ 4.93 µM)
- MIC ([2]; VRE 4 (57 FR), 10% FBS): 8 µg/mL (≈ 19.7 µM)
- MIC ([2]; VRE 4 (57 FR), absence of FBS): 2 µg/mL (≈ 4.93 µM)
- MIC ([2]; VRE5 (58 FR), 10% FBS): 8 µg/mL (≈ 19.7 µM)
- MIC ([2]; VRE5 (58 FR), absence of FBS): 2 µg/mL (≈ 4.93 µM)
- MIC ([2]; VRE 6 (59 FR), 10% FBS): 8 µg/mL (≈ 19.7 µM)
- MIC ([2]; VRE 6 (59 FR), absence of FBS): 2 µg/mL (≈ 4.93 µM)
- MIC ([2]; VRE 7 (270 G), 10% FBS): 16 µg/mL (≈ 39.4 µM)
- MIC ([2]; VRE 7 (270 G), absence of FBS): 2 µg/mL (≈ 4.93 µM)
- MIC ([2]; VRE 8 (277 G), 10% FBS): 8 µg/mL (≈ 19.7 µM)
- MIC ([2]; VRE 8 (277 G), absence of FBS): 1 µg/mL (≈ 2.47 µM)
- MIC ([2]; VRE 9 (61 FR), 10% FBS): 8 µg/mL (≈ 19.7 µM)
- MIC ([2]; VRE 9 (61 FR), absence of FBS): 1 µg/mL (≈ 2.47 µM)
- MIC ([2]; VRE 10 (62 FR), 10% FBS): 16 µg/mL (≈ 39.4 µM)
- MIC ([2]; VRE 10 (62 FR), absence of FBS): 1 µg/mL (≈ 2.47 µM)
- MIC ([2]; VRE 11 (284 G), 10% FBS): 8 µg/mL (≈ 19.7 µM)
- MIC ([2]; VRE 11 (284 G), absence of FBS): 2 µg/mL (≈ 4.93 µM)
- MIC ([2]; VRE 12 (290 G), 10% FBS): 8 µg/mL (≈ 19.7 µM)
- MIC ([2]; VRE 12 (290 G), absence of FBS): 2 µg/mL (≈ 4.93 µM)
- MIC ([2]; VRE 13 (251 G), 10% FBS): 8 µg/mL (≈ 19.7 µM)
- MIC ([2]; VRE 13 (251 G), absence of FBS): 2 µg/mL (≈ 4.93 µM)
- MIC ([2]; VRE 14 (252 G), 10% FBS): 8 µg/mL (≈ 19.7 µM)
- MIC ([2]; VRE 14 (252 G), absence of FBS): 2 µg/mL (≈ 4.93 µM)
- MIC ([2]; VRE 15 (63 FR), 10% FBS): 8 µg/mL (≈ 19.7 µM)
- MIC ([2]; VRE 15 (63 FR), absence of FBS): 2 µg/mL (≈ 4.93 µM)
- MIC ([2]; VRE 16 (60 FR), 10% FBS): 8 µg/mL (≈ 19.7 µM)
- MIC ([2]; VRE 16 (60 FR), absence of FBS): 2 µg/mL (≈ 4.93 µM)
- MIC ([2]; VRE 17 (45 FR), 10% FBS): 8 µg/mL (≈ 19.7 µM)
- MIC ([2]; VRE 17 (45 FR), absence of FBS): 2 µg/mL (≈ 4.93 µM)
- MIC ([2]; VRE 18 (69 W), 10% FBS): 8 µg/mL (≈ 19.7 µM)
- MIC ([2]; VRE 18 (69 W), absence of FBS): 2 µg/mL (≈ 4.93 µM)
- MIC ([2]; VRE 19 (70 W), 10% FBS): 8 µg/mL (≈ 19.7 µM)
- MIC ([2]; VRE 19 (70 W), absence of FBS): 2 µg/mL (≈ 4.93 µM)
